According to PubChem BioAssay AID1963420 (Molecular Pharmacology Branch, DTP, NCI, 2024):
pIC50: −log10 of the molar value. Values belong to the compound of their own block, whether it stands above or below them.

Tested on: 494315-158-R-J1-PDC complex spheroid growth, percent test/control
Assay: Anticancer human tumor 494315-158-R-J1-PDC patient-derived soft tissue sarcoma cell line growth inhibition [Asc]
Settings: for pIC50: curve of first compound; for viability, T/C: stronger effect = lower value
Method: Multicellular complex tumor spheroid response to apoptosis pathway targeting inhibitors Alrizomadlin, Pelcitoclax, and Dasminapant in combination with a variety of drugs and investigational agents in selected tumor cell lines
The MDM2 inhibitor alrizomadlin, the Bcl-2/Bcl-xL inhibitor pelcitoclax, and the IAPs inhibitor dasminapant were evaluated both individually and in combination with standard of care and investigational anticancer small molecules within a complex spheroid model of solid tumors. . Complex spheroids include a stromal component modeled by human endothelial cells (HUVEC) and fibroblasts modeled by human mesenchymal stem cells (MSCs). The concentration ranges selected for each drug and investigational agent were based upon clinically achievable concentrations if the clinical Cmax of the agent was known.
Compounds. The drugs and investigational agents: alrizomadlin (APG-115; NSC831270), pelcitoclax (APG-1252; NSC835773), dasminapant (APG-1387;NSC834197), TAK-243 (NSC785004), copanlisib (NSC809693), olaparib (NSC753686), talazoparib (NSC767125), cobimetinib (NSC 768068), eltanexor (KPT-8602, NSC 794443), abemaciclib (NSC 768073), sotorasib (NSC818433), adagrasib (NSC 831453), MRTX-1133 (NSC 836407), Iadademestat (ORY1001, NSC 806812), and RMC-4630 (NSC839698), were obtained from the NCI Developmental Therapeutics Program Chemical Repository. The FDA-approved anticancer drug set is available from the Developmental Therapeutics Program at https://dtp.cancer.gov/organization/dscb/obtaining/available plates.htm. […] The stock solutions were prepared in dimethyl sulfoxide (DMSO, Sigma-Aldrich, St. Louis, MO, cat. D2650) at 800-fold the tested concentration and stored at -70 degrees C prior to their use. All drugs and investigational agents were tested over a range starting from a high concentration at or near the clinical Cmax and decreasing in half-log increments. If the clinical Cmax for an agent had not been determined, the highest concentration tested was 10 microM.
The patient-derived cancer (PDC) cell lines include five colon adenocarcinomas: 186277-243-T-J2-PDC, 616215-338-R-J1-PDC, 439559-082-T-J2-PDC, 463943-066-T-J2-PDC, and 519858-162-T-J1-PDC; three pancreatic carcinomas: 323965-272-R-J2-PDC, 521955-158-R6-J3-PDC, and 521955-158-R2-J5-PDC; two uterine sarcomas: 327498-152-R-J2-PDC and 993429-296-R-J1-PDC; two rhabdomyosarcomas: 755483-174-R-J1-PDC and 772245-204-R-J1-PDC; two soft tissue sarcomas: 126254-015-R-J1-PDC and 494315-158-R-J1-PDC; two malignant fibrous histiocytomas: 317291-083-R-J1-PDC and 596521-263-R-J1-PDC; two breast carcinomas: 171881-019-R-J1-PDC and 885512-296-R-J2-PDC; and one ovarian carcinoma: 6556581-035-R-J-PDC were obtained from the NCI PDMR, (https://pdmr.cancer.gov). The established cell lines HSSY-2 synovial sarcoma (RRID:CVCL 8719), SYO-1 synovial sarcoma (RRID:CVCL_7146), MPNST malignant peripheral neural sheath tumor were obtained from the Sloan Kettering Institute. The following established cell lines were purchased from the American Type Culture Collection (ATCC, Manassas, VA), Sor the received from the NCI repository:, PANC-1 pancreatic carcinoma (CRL-1469, RRID:CVCL_0480), OVCAR-5 ovarian carcinoma (RRID:CVCL_1628), OVCAR-8 ovarian carcinoma (RRID:CVCL_1629), , MCF-7 breast carcinoma (CRL-12584, RRID:CVCL_0031), MDA-MB-231 breast carcinoma (CRL-12532, RRID:CVCL_0062), NCI-H1876 small cell lung carcinoma (CRL-5902, RRID:CVCL_1503), NCI-H510A small cell lung carcinoma (HTB-184, RRID:CVCL_1565), NCI-H1417 (CRL-5869, RRID:CVCL_1469), and NCI-H196 small cell lung carcinoma (CRL-5823, RRID:CVCL_1509). Dr. Peter Houghton (Greehey Children's Cancer Research Institute, University of Texas Health Science Center, San Antonio, TX) provided Rh-18 rhabdomyosarcoma (RRID:CVCL_1659). Pooled donor human umbilical vein endothelial cells (HUVEC, Lonza, cat. CC-2519) and human mesenchymal stem cells (hMSC, Lonza, cat. PT-2501) were purchased from Lonza (Walkersville, MD).
Cell Culture. […]
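Also: compound exposure lasted seven days after spheroids formed for three days.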

pIC50 (second compound 0.01 µM): 7.46 | pIC50 (second compound 0.0316 µM): 8.50 | pIC50 (second compound 0.1 µM): 9.50 | pIC50 (second compound 0.316 µM): > 9.50 | pIC50 (second compound 1 µM): > 9.50
Compound: Cn1ncnc1[C@H]1c2n[nH]c(=O)c3cc(F)cc(c23)N[C@@H]1c1ccc(F)cc1 + CNC(C)C(=O)NC1CN(S(=O)(=O)c2cccc(S(=O)(=O)N3CCC4CCC(C(=O)NC(c5ccccc5)c5ccccc5)N4C(=O)C(NC(=O)C(C)NC)C3)c2)CCC2CCC(C(=O)NC(c3ccccc3)c3ccccc3)N2C1=O
viability, T/C (second compound 0.01 µM, first compound 0.000316 µM): 65.8% | viability, T/C (second compound 0.01 µM, first compound 0.001 µM): 73% | viability, T/C (second compound 0.01 µM, first compound 0.00316 µM): 59.1% | viability, T/C (second compound 0.01 µM, first compound 0.01 µM): 53.5% | viability, T/C (second compound 0.01 µM, first compound 0.0316 µM): 49.6% | viability, T/C (second compound 0.01 µM, first compound 0.1 µM): 46.1% | viability, T/C (second compound 0.0316 µM, first compound 0.000316 µM): 56.5% | viability, T/C (second compound 0.0316 µM, first compound 0.001 µM): 59.9% | viability, T/C (second compound 0.0316 µM, first compound 0.00316 µM): 50.1% | viability, T/C (second compound 0.0316 µM, first compound 0.01 µM): 36.8% | viability, T/C (second compound 0.0316 µM, first compound 0.0316 µM): 38% | viability, T/C (second compound 0.0316 µM, first compound 0.1 µM): 34.1% | viability, T/C (second compound 0.1 µM, first compound 0.000316 µM): 44.1% | viability, T/C (second compound 0.1 µM, first compound 0.001 µM): 53.4% | viability, T/C (second compound 0.1 µM, first compound 0.00316 µM): 49.6% | viability, T/C (second compound 0.1 µM, first compound 0.01 µM): 32% | viability, T/C (second compound 0.1 µM, first compound 0.0316 µM): 33.4% | viability, T/C (second compound 0.1 µM, first compound 0.1 µM): 31.2% | viability, T/C (second compound 0.316 µM, first compound 0.000316 µM): 49.9% | viability, T/C (second compound 0.316 µM, first compound 0.001 µM): 38.8% | viability, T/C (second compound 0.316 µM, first compound 0.00316 µM): 33.7% | viability, T/C (second compound 0.316 µM, first compound 0.01 µM): 29.4% | viability, T/C (second compound 0.316 µM, first compound 0.0316 µM): 27.2% | viability, T/C (second compound 0.316 µM, first compound 0.1 µM): 26.4% | viability, T/C (second compound 1 µM, first compound 0.000316 µM): 41.1% | viability, T/C (second compound 1 µM, first compound 0.001 µM): 40.1% | viability, T/C (second compound 1 µM, first compound 0.00316 µM): 38.5% | viability, T/C (second compound 1 µM, first compound 0.01 µM): 26.9% | viability, T/C (second compound 1 µM, first compound 0.0316 µM): 29% | viability, T/C (second compound 1 µM, first compound 0.1 µM): 22.6%

pIC50 (second compound 0.03 µM): < 6.00 | pIC50 (second compound 0.0949 µM): < 6.00 | pIC50 (second compound 0.3 µM): < 6.00 | pIC50 (second compound 0.949 µM): < 6.00 | pIC50 (second compound 3 µM): 6.10
Compound: O=C(c1ccc(F)c(F)c1Nc1ccc(I)cc1F)N1CC(O)([C@@H]2CCCCN2)C1 + CCN1C(C(=O)NC23CCC(C(=O)O)(CC2)CC3)C(c2cccc(Cl)c2F)C2(C(=O)Nc3cc(Cl)ccc32)C12CCCCC2
viability, T/C (second compound 0.03 µM, first compound 0.00316 µM): 110% | viability, T/C (second compound 0.03 µM, first compound 0.01 µM): 116% | viability, T/C (second compound 0.03 µM, first compound 0.0316 µM): 121% | viability, T/C (second compound 0.03 µM, first compound 0.1 µM): 115% | viability, T/C (second compound 0.03 µM, first compound 0.316 µM): 95.7% | viability, T/C (second compound 0.03 µM, first compound 1 µM): 61.7% | viability, T/C (second compound 0.0949 µM, first compound 0.00316 µM): 98% | viability, T/C (second compound 0.0949 µM, first compound 0.01 µM): 90.5% | viability, T/C (second compound 0.0949 µM, first compound 0.0316 µM): 110% | viability, T/C (second compound 0.0949 µM, first compound 0.1 µM): 99.2% | viability, T/C (second compound 0.0949 µM, first compound 0.316 µM): 96.6% | viability, T/C (second compound 0.0949 µM, first compound 1 µM): 58.4% | viability, T/C (second compound 0.3 µM, first compound 0.00316 µM): 98.9% | viability, T/C (second compound 0.3 µM, first compound 0.01 µM): 114% | viability, T/C (second compound 0.3 µM, first compound 0.0316 µM): 120% | viability, T/C (second compound 0.3 µM, first compound 0.1 µM): 111% | viability, T/C (second compound 0.3 µM, first compound 0.316 µM): 87.8% | viability, T/C (second compound 0.3 µM, first compound 1 µM): 51.2% | viability, T/C (second compound 0.949 µM, first compound 0.00316 µM): 88.4% | viability, T/C (second compound 0.949 µM, first compound 0.01 µM): 93.7% | viability, T/C (second compound 0.949 µM, first compound 0.0316 µM): 137% | viability, T/C (second compound 0.949 µM, first compound 0.1 µM): 127% | viability, T/C (second compound 0.949 µM, first compound 0.316 µM): 97.7% | viability, T/C (second compound 0.949 µM, first compound 1 µM): 61.3% | viability, T/C (second compound 3 µM, first compound 0.00316 µM): 98.2% | viability, T/C (second compound 3 µM, first compound 0.01 µM): 102% | viability, T/C (second compound 3 µM, first compound 0.0316 µM): 101% | viability, T/C (second compound 3 µM, first compound 0.1 µM): 112% | viability, T/C (second compound 3 µM, first compound 0.316 µM): 84.5% | viability, T/C (second compound 3 µM, first compound 1 µM): 41.4%
